Earlier results in patent US20060287520A1, “Synthesis of salinosporamide A and analogues thereof” (priority 2005, published 2006).

How the values were obtained:
[1] = test system: 20S proteasome; details: times more potent than omuralide, same molecular target (20S proteasome)
[2] = read-out: in vitro cytotoxicity IC50; background statement; cell line not given

C[C@@]12OC(=O)[C@]1([C@@H](O)[C@@H]1C=CCCC1)NC(=O)[C@@H]2CCCl [Salinosporamide A]
potency relative to omuralide (2) [1]: approximately 35 times | IC50 [2]: ~10 nM
